# Source: paper PMC8389807 (Journal of Medicinal Chemistry, 2021)
# Like-named read-outs stand apart in the source and are kept apart here.
# Key:
# [1] = tested on: EV71 genogroup B2 strain 11316; assay: microbe, parasite or virus in culture; format: cell-based; details: Enterovirus A, genogroup B2, strain 11316, RD cells
# [2] = tested on: BrCr Lab Strain of EV-A71; assay: Antiviral activity against the BrCr lab strain of EV-A71 in RD cells (CPE reduction, MTS/PMS); format: cell-based; details: Enterovirus A
# [3] = tested on: EV71 genogroup C4 strain TW/1956/05; assay: microbe, parasite or virus in culture; format: cell-based; details: Enterovirus A, genogroup C4, strain TW/1956/05, RD cells
# [4] = tested on: HIV-2 (ROD); assay: Anti-HIV-2 activity in MT-4 cells (CPE, MTS/PES); format: cell-based
# [5] = tested on: HIV; design: method as in PMID 26513643, PMID 31809045; details: Figure 1, earlier prototypes; cited from earlier work
# [6] = tested on: EV71 genogroup B5 strain TW/70902/08; assay: microbe, parasite or virus in culture; format: cell-based; details: Enterovirus A, genogroup B5, strain TW/70902/08, RD cells
# [7] = tested on: HIV-1 (NL4.3); assay: microbe, parasite or virus in culture; format: cell-based; details: MT-4 cells, 50% reduction of virus-induced cytopathic effect
# [8] = tested on: EV71; design: method as in PMID 27246775, PMID 31809045; details: Figure 1, earlier prototypes; cited from earlier work
# [9] = tested on: EV71 genogroup C2 strain H08300 461#812; assay: microbe, parasite or virus in culture; format: cell-based; details: Enterovirus A, genogroup C2, strain H08300 461#812, RD cells
# [10] = tested on: HIV-1 (Ba-L); assay: microbe, parasite or virus in culture; format: cell-based; details: CCR5-tropic strain, PBMC, read-out: HIV-1 (Ba-L) EC50
# [11] = tested on: HIV-1 (NL4.3); assay: microbe, parasite or virus in culture; format: cell-based; details: CXCR4-tropic strain, PBMC; for EC50: read-out: HIV-1 (NL4.3) EC50
# [12] = in vitro; details: human
# [13] = in vitro; details: human; remark: listed apart in the source
# [14] = Cytotoxicity in MT-4 cells (MTS/PES); details: human
# [15] = EVA71, RD, BrCr lab strain, RD cells, 50% reduction of virus-induced CPE, read-out: EC50
# [16] = Human immunodeficiency virus 2, MT4, MT-4 cells, 50% reduction of virus-induced cytopathic effect, read-out: HIV-2 (ROD) EC50
# [17] = Human immunodeficiency virus 1, MT4
Molecule,"EC50 [2, 15] [nM]","EC50 [4, 16] [nM]","EC50 [7, 17] [nM]",CC50 [13] [µM],further results
"O=C(CCC(CCC(=O)NC(Cc1c(-c2cc(C(=O)O)cc(C(=O)O)c2)[nH]c2ccccc12)C(=O)O)(CCC(=O)NC(Cc1c(-c2cc(C(=O)O)cc(C(=O)O)c2)[nH]c2ccccc12)C(=O)O)[N+](=O)[O-])NC(Cc1c(-c2cc(C(=O)O)cc(C(=O)O)c2)[nH]c2ccccc12)C(=O)O (stereo not shown) [AL-470, reference compound]",300 ± 30,600 ± 800,300 ± 100,,"EC50 [1]: 179 ± 11 nM; EC50 ([2]; EVA71, RD, genogroup A, BrCr, RD cells (clinical isolate panel), read-out: EC50): 353 ± 31 nM; EC50 [3]: 38 ± 3 nM; EC50 [5]: 270 ± 120 nM; EC50 [6]: 81 ± 13 nM; EC50 [8]: 350 ± 30 nM; EC50 [9]: 57 ± 0.2 nM"
c1cc(CN2CCCNCCNCCCNCC2)ccc1CN1CCCNCCNCCCNCC1 [AMD3100],,,,,"EC50 ([10]; Human immunodeficiency virus 1, BAL): > 1 µg/mL; EC50 ([11]; Human immunodeficiency virus 1): 3.57 ng/mL"
O=C(CCC(CCC(=O)NC(Cc1c[nH]c2c(-c3cccc(C(=O)O)c3)cccc12)C(=O)O)(CCC(=O)NC(Cc1c[nH]c2c(-c3cccc(C(=O)O)c3)cccc12)C(=O)O)[N+](=O)[O-])NC(Cc1c[nH]c2c(-c3cccc(C(=O)O)c3)cccc12)C(=O)O (stereo not shown) [Compound 14],54800 ± 34100,> 30000,45100 ± 10200,> 100,CC50 [12]: > 84 µM
O=C(CCC(CCC(=O)NC(Cc1c[nH]c2c(-c3cc(C(=O)O)cc(C(=O)O)c3)cccc12)C(=O)O)(CCC(=O)NC(Cc1c[nH]c2c(-c3cc(C(=O)O)cc(C(=O)O)c3)cccc12)C(=O)O)[N+](=O)[O-])NC(Cc1c[nH]c2c(-c3cc(C(=O)O)cc(C(=O)O)c3)cccc12)C(=O)O (stereo not shown) [Compound 16],1200 ± 200,1900 ± 400,400 ± 200,,
O=C(CCOCC(COCCC(=O)NC(Cc1c[nH]c2c(-c3cccc(C(=O)O)c3)cccc12)C(=O)O)(COCCC(=O)NC(Cc1c[nH]c2c(-c3cccc(C(=O)O)c3)cccc12)C(=O)O)COCCC(=O)NC(Cc1c[nH]c2c(-c3cccc(C(=O)O)c3)cccc12)C(=O)O)NC(Cc1c[nH]c2c(-c3cccc(C(=O)O)c3)cccc12)C(=O)O (stereo not shown) [Compound 21],3100 ± 1100,7900 ± 900,14100 ± 600,,
O=C(CCOCC(COCCC(=O)NC(Cc1c[nH]c2c(-c3ccc(C(=O)O)cc3)cccc12)C(=O)O)(COCCC(=O)NC(Cc1c[nH]c2c(-c3ccc(C(=O)O)cc3)cccc12)C(=O)O)COCCC(=O)NC(Cc1c[nH]c2c(-c3ccc(C(=O)O)cc3)cccc12)C(=O)O)NC(Cc1c[nH]c2c(-c3ccc(C(=O)O)cc3)cccc12)C(=O)O (stereo not shown) [Compound 22],1700 ± 400,400 ± 300,6500 ± 2500,> 100,CC50 [12]: > 100 µM
O=C(CCOCC(COCCC(=O)NC(Cc1c[nH]c2c(-c3cc(C(=O)O)cc(C(=O)O)c3)cccc12)C(=O)O)(COCCC(=O)NC(Cc1c[nH]c2c(-c3cc(C(=O)O)cc(C(=O)O)c3)cccc12)C(=O)O)COCCC(=O)NC(Cc1c[nH]c2c(-c3cc(C(=O)O)cc(C(=O)O)c3)cccc12)C(=O)O)NC(Cc1c[nH]c2c(-c3cc(C(=O)O)cc(C(=O)O)c3)cccc12)C(=O)O (stereo not shown) [Compound 23],300 ± 40,20 ± 20,20 ± 10,,CC50 [12]: > 55 µM; CC50 at 120 h [13]: 75 µM
O=C(CCOCC(COCCC(=O)NC(Cc1c(-c2ccc(C(=O)O)cc2)[nH]c2c(-c3ccc(C(=O)O)cc3)cccc12)C(=O)O)(COCCC(=O)NC(Cc1c(-c2ccc(C(=O)O)cc2)[nH]c2c(-c3ccc(C(=O)O)cc3)cccc12)C(=O)O)COCCC(=O)NC(Cc1c(-c2ccc(C(=O)O)cc2)[nH]c2c(-c3ccc(C(=O)O)cc3)cccc12)C(=O)O)NC(Cc1c(-c2ccc(C(=O)O)cc2)[nH]c2c(-c3ccc(C(=O)O)cc3)cccc12)C(=O)O (stereo not shown) [Compound 32],100 ± 20,20 ± 20,200 ± 200,> 100,CC50 [12]: > 100 µM
"NC(Cc1c(-c2cc(C(=O)O)cc(C(=O)O)c2)[nH]c2c(-c3cc(C(=O)O)cc(C(=O)O)c3)cc(-c3cc(C(=O)O)cc(C(=O)O)c3)cc12)C(=O)O (stereo not shown) [Compound 37, 5,5′,5″-(3-(2-Amino-2-carboxyethyl)-1H-indole-2,5,7-triyl)triisophthalic Acid]",,,> 100000,,"EC50 ([2]; EVA71, RD): > 90000 nM; EC50 ([4]; Human immunodeficiency virus 2, MT4, read-out: HIV-2 (ROD) EC50): > 100000 nM; CC50 at 5 days [14]: > 100 µM"
"O=C(CCC(CCC(=O)NC(Cc1c(-c2cccc(C(=O)O)c2)[nH]c2ccccc12)C(=O)O)(CCC(=O)NC(Cc1c(-c2cccc(C(=O)O)c2)[nH]c2ccccc12)C(=O)O)[N+](=O)[O-])NC(Cc1c(-c2cccc(C(=O)O)c2)[nH]c2ccccc12)C(=O)O (stereo not shown) [I, reference compound]",,64000 ± 28000,16000 ± 5700,> 100,
"O=C(CCC(CCC(=O)NC(Cc1c(-c2ccc(C(=O)O)cc2)[nH]c2ccccc12)C(=O)O)(CCC(=O)NC(Cc1c(-c2ccc(C(=O)O)cc2)[nH]c2ccccc12)C(=O)O)[N+](=O)[O-])NC(Cc1c(-c2ccc(C(=O)O)cc2)[nH]c2ccccc12)C(=O)O (stereo not shown) [II, reference compound]",,> 71000,2400 ± 1300,71,
"O=C(CCOCC(COCCC(=O)NC(Cc1c(-c2cccc(C(=O)O)c2)[nH]c2ccccc12)C(=O)O)(COCCC(=O)NC(Cc1c(-c2cccc(C(=O)O)c2)[nH]c2ccccc12)C(=O)O)COCCC(=O)NC(Cc1c(-c2cccc(C(=O)O)c2)[nH]c2ccccc12)C(=O)O)NC(Cc1c(-c2cccc(C(=O)O)c2)[nH]c2ccccc12)C(=O)O (stereo not shown) [III, reference compound]",,800 ± 500,2000 ± 600,> 100,
"O=C(CCOCC(COCCC(=O)NC(Cc1c(-c2ccc(C(=O)O)cc2)[nH]c2ccccc12)C(=O)O)(COCCC(=O)NC(Cc1c(-c2ccc(C(=O)O)cc2)[nH]c2ccccc12)C(=O)O)COCCC(=O)NC(Cc1c(-c2ccc(C(=O)O)cc2)[nH]c2ccccc12)C(=O)O)NC(Cc1c(-c2ccc(C(=O)O)cc2)[nH]c2ccccc12)C(=O)O (stereo not shown) [IV, reference compound]",,700 ± 800,700 ± 500,> 100,
"CN[C@@H]1[C@H](O[C@@H]2OC[C@@H](O)[C@H](O)[C@H]2O)[C@@H](O)[C@H](O[C@H]2c3cc(C)c(C(=O)N[C@H](C)C(=O)O)c(O)c3-c3c(cc4c(c3O)C(=O)c3cc(OC)cc(O)c3C4=O)[C@@H]2O)O[C@@H]1C [PRM-A, pradimicin A, reference compound]",,5900 ± 3700,3300 ± 1200,,CC50 at 5 days [14]: > 100 µM
"CCOC(=O)c1ccc(OCCC2CCN(c3ccc(C)nn3)CC2)cc1 [pirodavir, reference compound]",,,,,"EC50 ([2]; EVA71, BrCr lab strain, RD cells, 50% reduction of virus-induced CPE, read-out: EC50): 300 ± 100 nM; CC50 at 3 days [12]: > 100 µM"
"dextran sulfate-5000 [DS-5000, reference compound]",,,,,"EC50 ([4]; MT-4 cells, 50% reduction of virus-induced cytopathic effect, read-out: HIV-2 (ROD) EC50): 30 ± 10 nM; EC50 [7]: 70 ± 20 nM"
maraviroc,,,,,EC50 [10]: 4.48 nM; HIV-1 (NL4.3) EC50 [11]: insensitive; EC50 [11]: > 1000 nM
